Data on eight compounds can be found in patent publication US20240067662A1, “KRAS INHIBITORS” (Bristol-Myers Squibb Company, priority 2022, published 2024).

For the assay, the target named is GMPPNP-loaded KRAS G12C (Homo sapiens, UniProt P01116, G12C). Briefly: KRAS G12C RAF Disruption Assay (HTRF). The assay is classed as biochemical. Conditions: recombinant GMPPNP-loaded KRAS G12C (5 nM), 20 min with compound; GST-RAF1 RBD (9 nM); HTRF signal; read-out: KRASG12C RAF Disruption Assay (IC50). The method, boiled down: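 The read-out is an HTRF 520/495 emission ratio, with IC50 taken from dose-response curves. Compound was first incubated for 20 min at room temperature with active-state KRAS G12C (GMPPNP, 5 nM) in Tris pH 7.5/NaCl/MgCl2/DTT/BSA. RAF1 RBD-GST (9 nM, 20 min) and SA-Tb (0.25 nM, 3 h) were added in turn.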
GMPPNP-loaded KRAS G12C, sequence (P01116 1-188 isoform P01116-2 G12C): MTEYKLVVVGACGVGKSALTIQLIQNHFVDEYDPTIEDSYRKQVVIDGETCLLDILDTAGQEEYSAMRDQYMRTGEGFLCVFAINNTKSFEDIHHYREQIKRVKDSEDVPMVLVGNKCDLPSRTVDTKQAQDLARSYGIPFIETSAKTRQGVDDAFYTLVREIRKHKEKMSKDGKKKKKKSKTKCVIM
For orientation: IC50 means the midpoint of a concentration-inhibition curve. For the compound `N#CC[C@H]1CN(c2nc(OC[C@@]34CCCN3C[C@H](F)C4)nc3c(F)c(-c4ccccc4C4CCC4)ncc23)CCN1C(=O)/C(F)=C/c1ccccn1` [Compound 81, 2-((2S)-4-(7-(2-cyclobutylphenyl)-8-fluoro-2-(((2R, 7aS)-2-fluorotetrahydro-1H-pyrrolizin-7a(5H)-yl)methoxy)pyrido[4,3-d]pyrimidin-4-yl)-1-((Z)-2-fluoro-3-(pyridin-2-yl)acryloyl)piperazin-2-yl)acetonitrile], the IC50 is 57 nM.

Turning to `CN1CCC[C@H]1COc1nc(N2CCN(C(=O)/C(F)=C/c3ccccn3)[C@@H](CC#N)C2)c2cnc(-c3cccc4cccc(Cl)c34)c(F)c2n1` [Compound 19A, 2-((S)-4-(7-(8-chloronaphthalen-1-yl)-8-fluoro-2-(((S)-1-methylpyrrolidin-2-yl)methoxy)pyrido[4,3-d]pyrimidin-4-yl)-1-((Z)-2-fluoro-3-(pyridin-2-yl)acryloyl)piperazin-2-yl)acetonitrile], the IC50 turned out to be 59 nM.

As to `C#Cc1c(F)ccc2cc(O)cc(-c3ncc4c(N5C[C@H]6CC[C@@H](C5)N6C(=O)/C(F)=C/c5ccc(Br)cn5)nc(OC[C@@]56CCCN5C[C@H](F)C6)nc4c3F)c12` [Compound 9, (Z)-3-(5-bromopyridin-2-yl)-1-((1R, 5S)-3-(7-(8-ethynyl-7-fluoro-3-hydroxynaphthalen-1-yl)-8-fluoro-2-(((2R, 7aS)-2-fluorotetrahydro-1H-pyrrolizin-7a(5H)-yl)methoxy)pyrido[4,3-d]pyrimidin-4-yl)-3,8-diazabicyclo[3.2.1]octan-8-yl)-2-fluoroprop-2-en-1-one], the IC50 worked out at 350 nM.

As to `C#Cc1c(F)ccc2cc(O)cc(-c3ncc4c(N5CCN(C(=O)/C(F)=C/c6cccnn6)CC5)nc(OC[C@@]56CCCN5C[C@H](F)C6)nc4c3F)c12` [Example 55, (Z)-1-(4-(7-(8-ethynyl-7-fluoro-3-hydroxynaphthalen-1-yl)-8-fluoro-2-(((2R, 7aS)-2-fluorotetrahydro-1H-pyrrolizin-7a(5H)-yl)methoxy)pyrido[4,3-d]pyrimidin-4-yl)piperazin-1-yl)-2-fluoro-3-(pyridazin-3-yl)prop-2-en-1-one], the IC50 stood at 2 nM.

For the compound `C#Cc1cccc2cccc(-c3ncc4c(N(C)C5CCN(C(=O)/C(F)=C/c6ccccn6)C5C)nc(OC[C@@]56CCCN5C[C@H](F)C6)nc4c3F)c12` (single isomer, unassigned) [Example 74 trans isomer 2], the IC50 was found to be 110 nM.

Consider `C#Cc1c(F)ccc2cccc(-c3ncc4c(N5CCN(C(=O)/C(F)=C/c6ccccn6)CC5)nc(OC[C@@]56CCCN5C[C@H](F)C6)nc4c3F)c12` [Example 31, (Z)-1-(4-(7-(8-ethynyl-7-fluoronaphthalen-1-yl)-8-fluoro-2-(((2R, 7aS)-2-fluorotetrahydro-1H-pyrrolizin-7a(5H)-yl)methoxy)pyrido[4,3-d]pyrimidin-4-yl)piperazin-1-yl)-2-fluoro-3-(pyridin-2-yl)prop-2-en-1-one], for which the IC50 is 64 nM.

In the case of `C#Cc1c(F)ccc2cc(O)cc(-c3ncc4c(N5C[C@H]6CC[C@@H](C5)N6C(=O)/C(F)=C/c5cnccn5)nc(OC[C@@]56CCCN5C[C@H](F)C6)nc4c3F)c12` [Compound 16, (Z)-1-((1R, 5S)-3-(7-(8-ethynyl-7-fluoro-3-hydroxynaphthalen-1-yl)-8-fluoro-2-(((2R, 7aS)-2-fluorotetrahydro-1H-pyrrolizin-7a(5H)-yl)methoxy)pyrido[4,3-d]pyrimidin-4-yl)-3,8-diazabicyclo[3.2.1]octan-8-yl)-2-fluoro-3-(pyrazin-2-yl)prop-2-en-1-one], the IC50 stood at 180 nM.

As for `C#Cc1cccc2cccc(-c3ncc4c(N5CCN(C(=O)/C(F)=C/c6ccccn6)CC5)nc(OC[C@@H]5CCCN5C)nc4c3F)c12` [Example 25, (S,Z)-1-(4-(7-(8-ethynylnaphthalen-1-yl)-8-fluoro-2-((1-methylpyrrolidin-2-yl)methoxy)pyrido[4,3-d]pyrimidin-4-yl)piperazin-1-yl)-2-fluoro-3-(pyridin-2-yl)prop-2-en-1-one], the IC50 was 290 nM.
